What was measured:
Type in all cases: in vivo
[1] = tested on: Corn Earworm (Helicoverpa zea, HELIZE, CEW); experiment: Bioassay 4: corn earworm, artificial diet, 128-cell tray; details: AI alone
Procedure: (§1) Stock solutions were prepared with F1 as well as for each of the active ingredients individually. Test solutions were prepared from the stock solutions. Test solutions were prepared containing F1, the individual active ingredients, and mixtures of F1 with each of the active ingredients. The test solution for F1 was prepared by adding 500 μL of the stock solution to a 25 mL glass vial, then adding 500 μL of a 9:1 mixture of acetone:water. The individual active ingredients were prepared by adding 500 μL of stock solution to a 25 mL glass vial, then adding 500 μL of a 9:1 mixture of acetone:water. The test solutions containing mixtures of F1, and the individual active ingredients were prepared by adding 500 μL of the active ingredient stock solution to a 25 mL glass vial, followed by 500 μL of the F1 stock solution, creating a test solution containing 0.04% (w/v) of F1 and 0.4% (w/v) of the active ingredient. Each test solution was serially diluted to create desired doses of test solutions (F1 at 0.04% (w/v), 0.004% (w/v), 0.0004% (w/v), 0.00004% (w/v), 0.000004% (w/v), and 0.0000004% (w/v) and active ingredients at 0.4% (w/v), 0.04% (w/v), 0.004% (w/v), 0.0004% (w/v), 0.00004% (w/v), and 0.000004% (w/v)).
(§2) The test solutions were tested against CEW, FAW, and SBL using the following procedure: an artificial lepidopteran diet (Multispecies Lepidopteran Diet, Southland Products) was distributed in 128-cell bioassay trays (Frontier Agricultural Sciences™). 50 μL of test solution was pipetted into a cell in the bioassay tray. (The test solution doses of 0.04% (w/v), 0.004% (w/v), 0.0004% (w/v), 0.00004% (w/v), 0.000004% (w/v), and 0.0000004% (w/v) translated to concentrations of 5, 0.5, 0.05, 0.005, 0.0005, and 0.00005 μg/cm^2 on the diet, respectively.) A reference treatment (solvent check) was treated with the diluent only. Each treatment was replicated 8 times for each species. A 2nd instar CEW, FAW, or SBL larva was placed on top of the diet in each cell and was contained with a clear perforated adhesive lid. Test trays were held at approximately 26° C. and ambient relative humidity (RH) prior to grading.
(§3) After 5 days, the number of live larvae were recorded from each cell and percent control was measured using Abbott's correction formula (W. S. Abbott, J. Econ. Entomol. 18 (1925), pp. 265-267) as follows:
(§4) where X=No. of live larvae on solvent check and Y=No. of live larvae on treated diet. In Table B4 the “Expected % Control” was calculated using the method described in Colby S. R., Weeds, 1967, 15, 20-22. Bioassay 5: Neotropical Brown Stink Bug (Euschistus heros, EUSCHE, “BSB”).

[2] = tested on: Fall Armyworm (Spodoptera frugiperda, LAPHFR, FAW); experiment: Bioassay 4: fall armyworm, artificial diet, 128-cell tray; details: AI alone
Procedure: as §1, §2, §3, §4

[3] = tested on: Soybean Looper (Chrysodeixis includens, PSEPIN, SBL); experiment: Bioassay 4: soybean looper, artificial diet, 128-cell tray; details: AI alone
Procedure: as §1, §2, §3, §4

[4] = tested on: Beet Armyworm (Spodoptera exigua, LAPHEG, BAW); experiment: Bioassay 7: beet armyworm, artificial diet, 96 well plate; details: AI alone at 0.4 wt %
Procedure: (§5) The test solutions were tested against CEW, FAW, BAW, and SBL using the following procedure: an artificial lepidopteran diet (Multispecies Lepidopteran Diet, Southland Products) was distributed in 96 well plate. Twenty μL of test solution was pipetted onto a cell in the bioassay plate. […] Each treatment was replicated 5 times for each species. Approximately five first instar CEW, FAW, BAW, or SBL larva were placed on top of the diet in each cell and was contained with a clear perforated adhesive lid. Test trays were held at approximately 25° C. and ambient relative humidity prior to grading. After five days, the number of cells where all the larvae were dead were recorded as 100% and averaged across all replicates; then the percent control was measured using Abbott's correction formula (W. S. Abbott, J. Econ. Entomol. 18 (1925), pp. 265-267) as follows:
(§6) where X=No. of live larvae on solvent check and Y=No. of live larvae on treated diet. In Table 7 the “Expected % Control” was calculated using the method described in Colby S. R., Weeds, 1967, 15, 20-22. Bioassay 8: Western Corn Rootworm (Diabrotica virgifera virgifera, DIABVI, “WCR”)

[5] = tested on: Soybean Looper (Chrysodeixis includens, PSEPIN, SBL); experiment: Bioassay 7: soybean looper, artificial diet, 96 well plate; details: CL; AI alone at 0.4 wt %
Procedure: as §5, §6

[6] = tested on: Western Flower Thrips (Frankliniella occidentalis, FRANOC, WFT); experiment: Bioassay 3: western flower thrips, cotton leaf disc dip; details: 3 days
Procedure: Stock solutions of F1 and various active ingredients were prepared initially at a concentration of 0.1 mg/mL using acetone as a diluent. Stock solutions were prepared with F1 as well as for each of the active ingredients individually. Test solutions were prepared from the stock solutions. Test solutions were prepared containing F1, the individual active ingredients, and mixtures of F1 with each of the active ingredients. The test solutions for F1 and the individual active ingredients were prepared by adding 500 μL of stock solution to a 25 mL glass vial, then adding 500 μL of acetone, followed by the addition of 9 mL water with 0.025% Tween® 20 to create a 0.0005% (w/v) solution. The test solutions containing mixtures of F1, and the individual active ingredients were prepared by adding 500 μL of the active ingredient stock solution to a 25 mL glass vial, followed by 500 μL of the F1 stock solution, then by the addition of 9 mL water with 0.025% Tween® 20 to create a test solution containing 0.0005% (w/v) F1 and 0.0005% (w/v) of the active ingredient. Each test solution was serially diluted to create desired doses of test solutions (0.0005% (w/v), 0.000125% (w/v), 0.00003125% (w/v), 0.0000078% (w/v), and 0.00000195% (w/v)).
The test solutions were tested against WFT using the following procedure: Leaf discs (2.7 cm in diameter) were cut from the true leaves of cotton plants. Leaf discs were dipped into the test solutions and shaken to ensure complete coverage of the leaf disc and then placed in Millipore® PetriSlides containing a filter paper disc. Treated leaf discs were air dried for approximately 1 hour. Each leaf disc was infested with 5 WFT (9-10-day old nymphs) by placement on each leaf disc, and the PetriSlides were capped to prevent escape. Each treatment was replicated three times and the test treatments were held at approximately 26° C. and ambient relative humidity (RH) prior to grading. Reference discs (solvent check) were treated with the diluent only. Evaluation was conducted by counting the number of live WFT under magnification 3 days after treatment. Percent control was measured using Abbott's correction formula (W. S. Abbott, J. Econ. Entomol. 18 (1925), pp. 265-267) as follows:
where X=No. of live nymphs on solvent check leaf discs and Y=No. of live nymphs on treated leaf discs. In Table B3 the “Expected % Control” was calculated using the method described in Colby S. R., Weeds, 1967, 15, 20-22. Bioassay 4: Corn Earworm (Helicoverpa zea, HELIZE, “CEW”), Fall Armyworm (Spodoptera frugiperda, LAPHFR, “FAW”), and Soybean Looper (Chrysodeixis includens, PSEPIN, “SBL”).

[7] = tested on: Corn Earworm (Helicoverpa zea, HELIZE, CEW); experiment: Bioassay 7: corn earworm, artificial diet, 96 well plate; details: AI alone at 0.4 wt %
Procedure: as §5, §6

[8] = AI alone at 1:1 rate to F1 0.78 (10^-6 Wt %)
[9] = AI alone at 1:1 rate to F1 0.195 (10^-6 Wt %)
[10] = AI alone at 1:1 rate to F1 3.125 (10^-6 Wt %)

| Molecule | Average % Control AI ([1]; 0.000004 wt %) [%] | Average % Control AI ([1]; 0.00004 wt %) [%] | Average % Control AI ([2]; 0.000004 wt %) [%] | Average % Control AI ([3]; 0.000004 wt %) [%] | further results |
| --- | --- | --- | --- | --- | --- |
| CC(C(=O)Nc1cn(-c2cccnc2)nc1Cl)S(C)(=O)=O (centres unmarked) [AI-2, N-(3-chloro-1-(pyridin-3-yl)-1H-pyrazol-4-yl)-2-(methylsulfonyl)propanamide] | 0.0 | 0.0 | 0.0 | 0.0 |  |
| C/C(=N\C#N)N(C)Cc1ccc(Cl)nc1 [Acetamiprid] | 0.0 | 0.0 |  |  | Average % Control AI ([2]; 0.00004 wt %): 0.0%; Average % Control AI ([3]; 0.00004 wt %): 0.0% |
| CO/C=C(/C(=O)OC)c1ccccc1Oc1cc(Oc2ccccc2C#N)ncn1 [Azoxystrobin] |  |  |  |  | Average % Control AI [4]: 0.0% |
| FC(F)(F)c1ccc(COc2ncncc2C2OCCCO2)cc1 [Benzpyrimoxan] | 0.0 | 0.0 | 0.0 | 0.0 |  |
| [Cu+2].[OH-].[OH-] [Copper Hydroxide] |  |  |  |  | Average % Control AI [5]: 0.0% |
| CNC(=O)c1cc(C#N)cc(C)c1NC(=O)c1cc(Br)nn1-c1ncccc1Cl [Cyantraniliprole] | 0.0 | 0.0 | 0.0 | 0.0 | Average % Control AI [6, 8]: 0.0%; Average % Control AI ([2]; 0.00004 wt %): 0.0%; Average % Control AI ([3]; 0.00004 wt %): 0.0% |
| COc1ccc(Cl)c(S(=O)(=O)NC(=O)c2cn3cc(C(F)(F)F)cc(Cl)c3n2)c1 [Fluazain dolizine] |  |  |  |  | Average % Control AI [4]: 0.0% |
| N#Cc1c[nH]cc1-c1cccc2c1OC(F)(F)O2 [Fludioxonil] |  |  |  |  | Average % Control AI [4]: 0.0% |
| O=C(NCCc1ncc(C(F)(F)F)cc1Cl)c1ccccc1C(F)(F)F [Fluopyram] |  |  |  |  | Average % Control AI [4]: 0.0% |
| O=C(N=c1ccccn1Cc1ccc(Cl)nc1)C(F)(F)F [Flupyrimin] | 0.0 | 0.0 | 0.0 | 0.0 | Average % Control AI [6, 9]: 4.8%; Average % Control AI ([2]; 0.00004 wt %): 0.0%; Average % Control AI ([3]; 0.00004 wt %): 0.0% |
| Cn1cc(C(=O)Nc2ccccc2-c2cc(F)c(F)c(F)c2)c(C(F)F)n1 [Fluxapyroxad] |  |  |  |  | Average % Control AI [4]: 0.0% |
| CC1(C)[C@H](/C=C(\Cl)C(F)(F)F)[C@@H]1C(=O)O[C@@H](C#N)c1cccc(Oc2ccccc2)c1 [Lambda-cyhalothrin] | 0.0 |  | 0.0 | 12.5 | Average % Control AI ([2]; 0.00004 wt %): 0.0% |
| CC(O)(Cn1cncn1)c1ccc(Oc2ccc(Cl)cc2)cc1C(F)(F)F (centres unmarked) [Mefentrifluconazole] |  |  |  |  | Average % Control AI [7]: 0.0%; Average % Control AI [4]: 0.0% |
| CC1(C)CCC(Cc2ccc(Cl)cc2)C1(O)Cn1cncn1 (centres unmarked) [Metconazole] |  |  |  |  | Average % Control AI [4]: 0.0% |
| COc1cccc(C(=O)NN(C(=O)c2cc(C)cc(C)c2)C(C)(C)C)c1C [Methoxyfenozide] | 0.0 | 0.0 | 12.5 | 25.0 | Average % Control AI [6, 10]: 4.8%; Average % Control AI ([2]; 0.00004 wt %): 0.0% |
| Cc1cc(C(F)(F)F)nn1CC(=O)N1CCC(c2nc(C3=NOC(c4c(F)cccc4F)C3)cs2)CC1 (centres unmarked) [Oxathiapiprolin] |  |  |  |  | Average % Control AI [7]: 0.0%; Average % Control AI [5]: 0.0% |
| CCCC1COC(Cn2cncn2)(c2ccc(Cl)cc2Cl)O1 (centres unmarked) [Propiconazole] |  |  |  |  | Average % Control AI [7]: 0.0% |
| CC(COc1ccc(Oc2ccccc2)cc1)Oc1ccccn1 (centres unmarked) [Pyriproxyfen] | 0.0 | 0.0 | 12.5 | 12.5 |  |
| CCOC(=O)OC1=C(c2cc(C)ccc2C)C(=O)N[C@]12CC[C@@H](OC)CC2 [Spirotetramat] | 0.0 | 0.0 | 0.0 | 12.5 |  |
| CC(c1ccc(C(F)(F)F)nc1)S(C)(=O)=NC#N (centres unmarked) [Sulfoxaflor] | 0.0 | 0.0 | 0.0 | 12.5 |  |
| Dinotefuran | 0.0 | 0.0 |  |  |  |
| Spinosad | 0.0 | 0.0 | 12.5 | 0.0 | Average % Control AI [6, 10]: 57.1% |
| Tebuconazole |  |  |  |  | Average % Control AI [7]: 0.0% |
| Tetraniliprole | 0.0 | 0.0 | 0.0 | 0.0 | Average % Control AI ([1]; 0.0004 wt %): 12.5%; Average % Control AI [6, 9]: 0.0%; Average % Control AI [6, 8]: 5.7%; Average % Control AI [6, 10]: 0.0%; Average % Control AI ([6]; AI alone at 1:1 rate to F1 12.5 (10^-6 Wt %)): 12.6%; Average % Control AI ([6]; AI alone at 1:1 rate to F1 50 (10^-6 Wt %)): 0.0%; Average % Control AI ([2]; 0.00004 wt %): 50.0%; Average % Control AI ([3]; 0.00004 wt %): 12.5% |

From patent publication US20260182575A1, “MOLECULES HAVING PESTICIDAL UTILITY AND INTERMEDIATES AND PROCESSES RELATED THERETO” (CORTEVA AGRISCIENCE LLC, priority 2022, published 2026)
